Measurements: patent US20190194148A1, “TETRAZOLE-CONTAINING 1,2-CYCLOPROPANE-CARBOXAMIDES” (Bayer Pharma Aktiengesellschaft, priority 2017, published 2019)

What follows are compounds tested against T1, human B1 receptor (Homo sapiens, UniProt P46663) (assay: Calcium flux assay (FLIPR) with recombinant CHO-K1 cells expressing human B1 receptor). Conditions: absence of 0.1% BSA in assay buffer, read-out: hB1 free IC50.
T1 construct: host or cells: CHO-K1
T1 sequence (P46663 1-353): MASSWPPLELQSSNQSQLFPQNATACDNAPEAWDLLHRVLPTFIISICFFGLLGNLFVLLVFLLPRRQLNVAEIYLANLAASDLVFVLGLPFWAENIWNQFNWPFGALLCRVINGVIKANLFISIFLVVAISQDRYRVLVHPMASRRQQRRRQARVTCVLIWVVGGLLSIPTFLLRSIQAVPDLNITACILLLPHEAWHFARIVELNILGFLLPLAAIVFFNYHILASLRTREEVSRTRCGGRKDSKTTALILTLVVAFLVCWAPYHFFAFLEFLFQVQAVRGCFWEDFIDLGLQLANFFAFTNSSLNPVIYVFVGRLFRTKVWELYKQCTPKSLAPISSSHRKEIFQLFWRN
Type: cell-based
Procedure: The potency to inhibit the Bradykinin B1 receptors was determined for the example compounds of this invention in a cell-based fluorescent calcium-mobilisation assay. The assay measures the ability of example compounds to inhibit Bradykinin B1 receptor agonist-induced increase of intracellular free Ca^2+ in the cell line expressing B1 receptor. Specifically, calcium indicator-loaded cells are pre-incubated in the absence or presence of different concentrations of example compounds followed by the stimulation with a selective B1 receptor agonist peptide. The change of the intracellular Ca^2+ concentration is monitored with a fluorescent plate reader FLIPR (Molecular Devices).
Calcium Flux Assays (FLIPR) with Cells Expressing Bradykinin B1 Receptor Calcium Flux Assay (FLIPR) with Recombinant Cells for Bradykinin B1 Receptor Antagonist, Either in the Presence (hB1 IC50) or Absence (hB1 free IC50) of 0.1% Bovine Serum Albumin (BSA) in Assay Buffer
CHO-K1 cell line expressing human B1 receptor was purchased from Euroscreen (Gosselies, Belgium, with reference name hB1-D1). The cells were grown in Nutrient Mixture Ham's F12 (Sigma) containing 10% Foetal bovine serum (Sigma) and 400 μg/mL G418 (Sigma), 5 μg/mL puromycin (Sigma).
For the calcium flux assay, 80% confluent cells were detached from the culture vessels with Versene (Gibco), and seeded into 384-well plates (Cell binding Surface; Corning, N.Y.; #3683) at a density of 15,000 cells per well. Cells were seeded in a volume of 50 μL in medium without antibiotics and incubated overnight in a humidified atmosphere with 5% CO2 at 37° C. […] The calcium indicator loaded cells were incubated at 37° C. for 2 hrs. Extracellular dye was then removed and each well was filled with 45 μL of assay buffer. Cell plates were kept in dark until used. Example compounds were assayed at 8 concentrations in triplicate. Serial 10-fold dilutions in 100% DMSO were made at a 100-times higher concentration than the final concentration, and then diluted 1:10 in assay buffer. 5 μL of each diluted compound was added to the well of cell plates (yielding final concentration with 1% DMSO), and incubated for 30 min at 28° C. before the addition of B1 receptor agonist on the FLIPR instrument.
Agonist plates contained the agonist Lys-(Des-Arg)-Bradykinin (Bachem, Brackley) at 3.5×EC90 in assay buffer with 1% DMSO. The addition of agonist 20 μl per well to the assay plate was carried out on the FLIPR instrument while continuously monitoring Ca^2+-dependent fluorescence at 538 nm. A peptide antagonist Lys-(Des-Arg-Leu)-Bradykinin (Bachem, Brackley) at 20 μM was used to determine the full inhibition as control.
Peak fluorescence was used to determine the response to agonist obtained at each concentration of example compound by the following equation:
% Response=100*(RFU(example compound)−RFU(control)/(RFU(DMSO)−RFU(control)
Control=full inhibition by the peptide antagonist Lys-(Des-Arg-Leu)-Bradykinin at 20 μM
The response values were plotted against the logarithm of the compound concentrations. The compounds were tested in triplicates per plate and mean values were plotted in Excel XLfit to determine IC50 values, percentage of maximal inhibition and the Hill slopes.

| Compound | IC50 |
| --- | --- |
| O=C(Nc1ccc(-n2cc(C(F)(F)F)cn2)c(-c2nnn[nH]2)c1)C1CC1c1ccc(Cl)cc1 (racemic) [Example 46, 2-(4-Chlorophenyl)-N-{3-(1H-tetrazol-5-yl)-4-[4-(trifluoromethyl)-1H-pyrazol-1-yl]phenyl}cyclopropane-carboxamide] | 1180 nM |
| O=C(Nc1ccc(-n2ccc(C(F)(F)F)n2)c(-c2nnn[nH]2)c1)C1CC1c1ccc(Cl)cc1 (racemic) [Example 47, 2-(4-Chlorophenyl)-N-{3-(1H-tetrazol-5-yl)-4-[3-(trifluoromethyl)-1H-pyrazol-1-yl]phenyl}cyclopropane-carboxamide] | 1220 nM |
| COc1ccc(-c2cc(F)c(NC(=O)C3CC3c3ccc(Cl)cc3)cc2-c2nnn[nH]2)cc1C (racemic) [Example 57, 2-(4-chlorophenyl)-N-[5-fluoro-4′-methoxy-3′-methyl-2-(1H-tetrazol-5-yl)biphenyl-4-yl]cyclo-propanecarboxamide] | 24 nM |
| O=C(Nc1cc(F)c(-c2ccc(C(F)(F)F)nc2)c(-c2nnn[nH]2)c1)C1CC1c1ccc(Cl)cc1 (racemic) [Example 62, 2-(4-chlorophenyl)-N-{3-fluoro-5-(1H-tetrazol-5-yl)-4-[6-(trifluoromethyl)pyridin-3-yl]phenyl}cyclopro-panecarboxamide] | 947 nM |
| Cc1cccc(C2CC2C(=O)Nc2cc(-c3nnn[nH]3)c(-c3ccc(C(F)(F)F)nc3)cc2C)c1 (racemic) [Example 70, 2-(3-Methylphenyl)-N-{2-methyl-5-(1H-tetrazol-5-yl)-4-[6-(trifluoromethyl)pyridin-3-yl]phenyl}cyclopro-panecarboxamide] | 157 nM |
| Cc1cc(-c2ccc(C(F)(F)F)nc2)c(-c2nnn[nH]2)cc1NC(=O)C1CC1C1CCCCC1 (racemic) [Example 71, 2-Cyclohexyl-N-{2-methyl-5-(1H-tetrazol-5-yl)-4-[6-(trifluoromethyl)pyridin-3-yl]phenyl}cyclopro-panecarboxamide] | 308 nM |
| Cc1cccc(C2CC2C(=O)Nc2ccc(-c3cc4ccccc4s3)c(-c3nnn[nH]3)c2)c1 (racemic) [Example 76, N-[4-(1-Benzothiophen-2-yl)-3-(1H-tetrazol-5-yl)phenyl]-2-(3-methylphenyl)cyclopro-panecarboxamide] | 249 nM |

Same assay, conditions: presence of 0.1% BSA in assay buffer, read-out: hB1 IC50

| Compound | IC50 |
| --- | --- |
| COc1ccc(-c2cc(F)c(NC(=O)C3CC3c3cccc(C)c3)cc2-c2nnn[nH]2)cc1OC (racemic) [Example 53, N-[5-Fluoro-3′,4′-dimethoxy-2-(1H-tetrazol-5-yl)biphenyl-4-yl]-2-(3-methylphenyl)cyclopro-panecarboxamide] | 16 nM |
| COc1ccc(-c2cc(F)c(NC(=O)C3CC3c3ccc(Cl)cc3)cc2-c2nnn[nH]2)cc1OC (racemic) [Example 54, 2-(4-Chlorophenyl)-N-[5-fluoro-3′,4′-dimethoxy-2-(1H-tetrazol-5-yl)biphenyl-4-yl]cyclopro-panecarboxamide] | 26 nM |
| COc1ccc(-c2cc(F)c(NC(=O)C3CC3c3cccc(C)c3)cc2-c2nnn[nH]2)cc1C (racemic) [Example 56, N-[5-Fluoro-4′-methoxy-3′-methyl-2-(1H-tetrazol-5-yl)biphenyl-4-yl]-2-(3-methylphenyl)cyclopro-panecarboxamide] | 19 nM |
| COc1ccc(-c2cc(F)c(NC(=O)C3CC3c3ccc(Cl)cc3)cc2-c2nnn[nH]2)cc1C (racemic) [Example 57, 2-(4-chlorophenyl)-N-[5-fluoro-4′-methoxy-3′-methyl-2-(1H-tetrazol-5-yl)biphenyl-4-yl]cyclo-propanecarboxamide] | 124 nM |
| COc1ccc(-c2cc(F)c(NC(=O)C3CC3c3ccc(Cl)cc3)cc2-c2nnn[nH]2)cc1 (racemic) [Example 58, 2-(4-Chlorophenyl)-N-[5-fluoro-4′-methoxy-2-(1H-tetrazol-5-yl)biphenyl-4-yl]cyclopropanecarbox-amide] | 134 nM |
| COc1ccc(-c2c(F)cc(NC(=O)C3CC3c3cccc(C)c3)cc2-c2nnn[nH]2)cc1OC (racemic) [Example 59, N-[2-Fluoro-3′,4′-dimethoxy-6-(1H-tetrazol-5-yl)biphenyl-4-yl]-2-(3-methylphenyl)cyclopro-panecarboxamide] | 83 nM |
| COc1ccc(-c2c(F)cc(NC(=O)C3CC3C3CCCCC3)cc2-c2nnn[nH]2)cc1OC (racemic) [Example 60, 2-Cyclohexyl-N-[2-fluoro-3′,4′-dimethoxy-6-(1H-tetrazol-5-yl)biphenyl-4-yl]cyclopro-panecarboxamide] | 177 nM |
| CCOc1ccc(-c2cc(C)c(NC(=O)C3CC3c3cccc(C)c3)cc2-c2nnn[nH]2)cn1 (racemic) [Example 63, N-[4-(6-Ethoxypyridin-3-yl)-2-methyl-5-(1H-tetrazol-5-yl)phenyl]-2-(3-methylphenyl)cyclo-propanecarboxamide] | 24 nM |
| CCOc1ccc(-c2cc(C)c(NC(=O)C3CC3C3CCCCC3)cc2-c2nnn[nH]2)cn1 (racemic) [Example 65, 2-Cyclohexyl-N-[4-(6-ethoxypyridin-3-yl)-2-methyl-5-(1H-tetrazol-5-yl)phenyl]cyclopropane-carboxamide] | 247 nM |
| COc1ccc(-c2cc(C)c(NC(=O)C3CC3c3ccc(Cl)cc3)cc2-c2nnn[nH]2)cc1OC (racemic) [Example 66, 2-(4-Chlorophenyl)-N-[3′,4′-dimethoxy-5-methyl-2-(1H-tetrazol-5-yl)biphenyl-4-yl]cyclopro-panecarboxamide] | 283 nM |
| COc1ccc(-c2cc(C)c(NC(=O)C3CC3C3CCCCC3)cc2-c2nnn[nH]2)cc1OC (racemic) [Example 67, 2-Cyclohexyl-N-[3′,4′ dimethoxy-5-methyl-2-(1H-tetrazol-5-yl)biphenyl-4-yl]cyclopro-panecarboxamide] | 430 nM |
| COc1cncc(-c2cc(C)c(NC(=O)C3CC3c3cccc(C)c3)cc2-c2nnn[nH]2)c1 (racemic) [Example 68, N-[4-(5-Methoxypyridin-3-yl)-2-methyl-5-(1H-tetrazol-5-yl)phenyl]-2-(3-methylphenyl)cyclo-propanecarboxamide] | 336 nM |
| COc1cncc(-c2cc(C)c(NC(=O)C3CC3C3CCCCC3)cc2-c2nnn[nH]2)c1 (racemic) [Example 69, 2-Cyclohexyl-N-[4-(5-methoxypyridin-3-yl)-2-methyl-5-(1H-tetrazol-5-yl)phenyl]cyclopropane-carboxamide] | 447 nM |
| Cc1cccc(C2CC2C(=O)Nc2cc(-c3nnn[nH]3)c(-c3ccc(C(F)(F)F)nc3)cc2C)c1 (racemic) [Example 70, 2-(3-Methylphenyl)-N-{2-methyl-5-(1H-tetrazol-5-yl)-4-[6-(trifluoromethyl)pyridin-3-yl]phenyl}cyclopro-panecarboxamide] | 86 nM |
| Cc1cc(-c2ccc(C(F)(F)F)nc2)c(-c2nnn[nH]2)cc1NC(=O)C1CC1C1CCCCC1 (racemic) [Example 71, 2-Cyclohexyl-N-{2-methyl-5-(1H-tetrazol-5-yl)-4-[6-(trifluoromethyl)pyridin-3-yl]phenyl}cyclopro-panecarboxamide] | 263 nM |
| CCOc1ccc(-c2cc(C)c(NC(=O)C3CC3c3cccc(C)c3)cc2-c2nnn[nH]2)cc1OC (racemic) [Example 72, N-[4′-Ethoxy-3′-methoxy-5-methyl-2-(1H-tetrazol-5-yl)biphenyl-4-yl]-2-(3-methylphenyl)cyclopro-panecarboxamide] | 38 nM |
| CCOc1ccc(-c2cc(C)c(NC(=O)C3CC3C3CCCCC3)cc2-c2nnn[nH]2)cc1OC (racemic) [Example 73, 2-Cyclohexyl-N-[4′-ethoxy-3′-methoxy-5-methyl-2-(1H-tetrazol-5-yl)biphenyl-4-yl]cyclopro-panecarboxamide] | 226 nM |
| COc1ccc(-c2cc(C)c(NC(=O)C3CC3C3CCCCC3)cc2-c2nnn[nH]2)cc1C (racemic) [Example 74, 2-Cyclohexyl-N-[4′-methoxy-3′,5-dimethyl-2-(1H-tetrazol-5-yl)biphenyl-4-yl]cyclopro-panecarboxamide] | 299 nM |
| CCOc1ccc(-c2ccc(NC(=O)C3CC3c3cccc(C)c3)cc2-c2nnn[nH]2)cc1OC (racemic) [Example 77, N-[4′-ethoxy-3′-methoxy-2-(1H-tetrazol-5-yl)biphenyl-4-yl]-2-(3-methylphenyl)cyclopro-panecarboxamide] | 12 nM |
